In the assay the target is T1, human LPAR1 (Homo sapiens, UniProt Q92633).
T1 construct: host or cells: TangoEDG2-bla U2OS cells
The experiment in a line: Arrestin assay (Arrestin Reporter EDG2-bla U2OS), inhibition of LPA-stimulated signal. The assay is classed as cell-based. Particulars: TangoEDG2-bla U2OS cells expressing human LPAR1; 0.25 μM LPA; read-out: Arrestin Reporter EDG2-bla U2OS Human Merged IC50. The method in brief:
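TangoEDG2-bla U2OS cells (1×10^4/well, plated 18-20 h) were preincubated 1 h at 37 °C with compound (12-point, 3-fold, 10 μM to 0.00006 μM), then stimulated 3 h with 0.25 μM LPA final. LiveBLAzer FRET B/G 460/530 nm emission ratio gave % inhibition; IC50 from 4-parameter variable-slope fit.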

In general, IC50 refers to the concentration that inhibits the measured activity by half.

T1 sequence (Q92633 whole entry): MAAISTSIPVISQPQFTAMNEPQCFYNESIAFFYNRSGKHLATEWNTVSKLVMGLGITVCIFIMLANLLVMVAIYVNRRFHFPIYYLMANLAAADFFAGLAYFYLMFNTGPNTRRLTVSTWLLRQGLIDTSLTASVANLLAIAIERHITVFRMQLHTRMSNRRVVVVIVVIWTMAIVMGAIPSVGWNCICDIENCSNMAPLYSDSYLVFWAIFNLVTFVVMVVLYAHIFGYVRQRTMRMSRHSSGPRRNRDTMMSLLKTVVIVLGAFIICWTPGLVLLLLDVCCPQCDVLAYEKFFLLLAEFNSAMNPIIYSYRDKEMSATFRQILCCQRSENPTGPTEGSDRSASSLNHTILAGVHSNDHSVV

For `CCC(=O)N1CC[C@@](CN2CCC(C(=O)Nc3ccc(Cl)cc3OC(F)F)(n3nccc3C(C)C)CC2)(C(=O)O)C1` [Compound 100, (3S)-3-[[4-[[4-chloro-2-(difluoromethoxy)phenyl]carbamoyl]-4-(5-isopropylpyrazol-1-yl)-1-piperidyl]methyl]-1-propanoyl-pyrrolidine-3-carboxylic acid], the IC50 worked out at 0.0785 µM.

On to `CCC(=O)N1CC[C@](CN2CCC(C(=O)Nc3ccc(Cl)cc3OC(F)F)(n3nccc3C(C)C)CC2)(C(=O)O)C1` [Compound 101, (3R)-3-[[4-[[4-chloro-2-(difluoromethoxy)phenyl]carbamoyl]-4-(5-isopropylpyrazol-1-yl)-1-piperidyl]methyl]-1-propanoyl-pyrrolidine-3-carboxylic acid], for which the IC50 was determined as 0.0809 µM. To `COCCC(=O)N1CC(CN2CCC(C(=O)Nc3ccc(Cl)cc3OC(F)F)(n3nccc3C(C)C)CC2)(C(=O)O)C1` [Compound 102, 3-[[4-[[4-chloro-2-(difluoromethoxy)phenyl]carbamoyl]-4-(5-isopropylpyrazol-1-yl)-1-piperidyl]methyl]-1-(3-methoxypropanoyl) azetidine-3-carboxylic acid] belongs 0.158 µM; to `CC1(C)COc2cnn(C3(C(=O)Nc4ccc(Cl)cc4OC(F)F)CCN([C@H]4C[C@@H](C(=O)O)C4)CC3)c21` [Compound 103, (1s,3s)-3-[4-[[4-chloro-2-(difluoromethoxy)phenyl]carbamoyl]-4-(6,6-dimethyl-5H-furo[3,2-c]pyrazol-1-yl)-1-piperidyl]cyclobutanecarboxylic acid], 0.164 µM. Take `CC1CCc2cnn(C3(C(=O)Nc4ccc(Cl)cc4OC(F)F)CCN([C@H]4C[C@@H](C(=O)O)C4)CC3)c21` (stereo partly drawn) [Compound 104, (1s,3s)-3-[4-[[4-chloro-2-(difluoromethoxy)phenyl]carbamoyl]-4-(6-methyl-5,6-dibydro-4H-cyclopenta[c]pyrazol-1-yl)-1-piperidyl] cyclobutanecarboxylic acid]: the IC50 was determined as 0.0447 µM. With `COCC(CN1CCC(C(=O)Nc2ccc(Cl)cc2OC(F)F)(n2nccc2C(C)C)CC1)C(=O)O` (stereo not drawn) [Compound 105, 2-[[4-[[4-chloro-2-(difluoromethoxy)phenyl]carbamoyl]-4-(5-isopropylpyrazol-1-yl)-1-piperidyl]methyl]-3-methoxy-propanoic acid], the concentration for half-maximal inhibition (IC50) was 0.0269 µM. As to `CC(C)c1ccnn1C1(C(=O)Nc2ccc(Cl)cc2OC(F)F)CCN([C@H]2C[C@@](C(=O)O)(C(F)(F)F)C2)CC1` [Compound 107, (1s,3s)-3-[4-[[4-chloro-2-(difluoromethoxy)phenyl]carbamoyl]-4-(5-isopropylpyrazol-1-yl)-1-piperidyl]-1-(trifluoromethyl) cyclobutanecarboxylic acid], the IC50 amounted to 0.0401 µM. To `CC(C)c1ccnn1C1(C(=O)Nc2ccc(Cl)cc2OC(F)F)CCN([C@H]2C[C@](C(=O)O)(C(F)(F)F)C2)CC1` [Compound 108, (1r,3r)-3-[4-[[4-chloro-2-(difluoromethoxy)phenyl]carbamoyl]-4-(5-isopropylpyrazol-1-yl)-1-piperidyl]-1-(trifluoromethyl)cyclobutanecarboxylic acid] belongs 0.0558 µM; to `CC(C)c1ccnn1C1(C(=O)Nc2ccc(Cl)cc2OC(F)F)CCN(CC2(C(=O)O)CCN(C(=O)O[C@H]3CCOC3)CC2)CC1` [Compound 109], 0.0949 µM; to `CC(C)c1ccnn1C1(C(=O)Nc2ccc(Cl)cc2OC(F)F)CCN(CC2(C(=O)O)CCN(C(=O)O[C@@H]3CCOC3)CC2)CC1` [Compound 110, 4-[[4-[[4-chloro-2-(difluoromethoxy)phenyl]carbamoyl]-4-(5-isopropylpyrazol-1-yl)-1-piperidyl]methyl]-1-[(3R)-tetrahydrofuran-3-yl]oxycarbonyl-piperidine-4-carboxylic acid], 0.0755 µM. For `CC(C)c1ccnn1C1(C(=O)Nc2ccc(Cl)cc2OC(F)F)CCN([C@H]2C[C@](C#N)(C(=O)O)C2)CC1` [Compound 111, (1r,3r)-3-[4-[[4-chloro-2-(difluoromethoxy)phenyl]carbamoyl]-4-(5-isopropylpyrazol-1-yl)-1-piperidyl]-1-cyano-cyclobutanecarboxylic acid], the half-maximal inhibitory concentration (IC50) was 0.221 µM. For the compound `CC(C)c1ccnn1C1(C(=O)Nc2ccc(Cl)cc2OC(F)F)CCN([C@H]2C[C@@](C#N)(C(=O)O)C2)CC1` [Compound 112, (1s,3s)-3-[4-[[4-chloro-2-(difluoromethoxy)phenyl]carbamoyl]-4-(5-isopropylpyrazol-1-yl)-1-piperidyl]-1-cyano-cyclobutanecarboxylic acid], the IC50 came out at 0.309 µM. Turning to `CC(C)c1ccnn1C1(C(=O)Nc2ccc(Cl)cc2OC(F)F)CCN(C2COC(C(=O)O)C2)CC1` (stereo not drawn) [Compound 113, 4-[4-[[4-chloro-2-(difluoromethoxy)phenyl]carbamoyl]-4-(5-isopropylpyrazol-1-yl)-1-piperidyl]tetrahydrofuran-2-carboxylic acid], the IC50 worked out at 0.141 µM.

For `CC1(C)CCc2cnn(C3(C(=O)Nc4ccc(Cl)cc4OC(F)F)CCN(C[C@@H]4CC[C@H]4C(=O)O)CC3)c21` [Compound 115, (1R.2R)-2-[[4-[[4-chloro-2-(difluoromethoxy)phenyl]carbamoyl]-4-(6,6-dimethyl-4,5-dibydrocyclopenta[c]pyrazol-1-yl)-1-piperidyl]methyl] cyclobutanecarboxylic acid], the 50% inhibitory concentration (IC50) came to 0.0825 µM.

For the compound `CC(C)c1ccnn1C1(C(=O)Nc2ccc(Cl)cc2OC(F)F)CCN(CC(C(=O)O)N2CCOCC2)CC1` (stereo not drawn) [Compound 116, 3-[4-[[4-chloro-2-(difluoromethoxy)phenyl]carbamoyl]-4-(5-isopropylpyrazol-1-yl)-1-piperidyl]-2-morpholino-propanoic acid], the concentration for half-maximal inhibition (IC50) is 0.129 µM. In the case of `C=C(CN1CCC(C(=O)Nc2ccc(Cl)cc2OC(F)F)(n2nccc2C(C)C)CC1)C(C)(C)C(=O)O` [Compound 117, 3-[[4-[[4-chloro-2-(difluoromethoxy)phenyl]carbamoyl]-4-(5-isopropylpyrazol-1-yl)-1-piperidyl]methyl]-2,2-dimethyl-but-3-enoic acid], the 50% inhibitory concentration (IC50) worked out at 0.049 µM. To `COC[C@H](CN1CCC(C(=O)Nc2ccc(Cl)cc2OC(F)F)(n2nccc2C(C)C)CC1)C(=O)O` [Compound 118, (2S)-2-[[4-[[4-chloro-2-(difluoromethoxy)phenyl]carbamoyl]-4-(5-isopropylpyrazol-1-yl)-1-piperidyl]methyl]-3-methoxy-propanoic acid] belongs 0.0208 µM. As for `CC(C)c1ccnn1C1(C(=O)Nc2ccc(Cl)cc2OC(F)F)CCN(CC(CO)C(=O)O)CC1` (stereo not drawn) [Compound 120, 2-[[4-[[4-chloro-2-(difluoromethoxy)phenyl]carbamoyl]-4-(5-isopropylpyrazol-1-yl)-1-piperidyl]methyl]-3-hydroxy-propanoic acid], the half-inhibitory concentration (IC50) came to 0.0347 µM. As for `CC(C)c1ccnn1C1(C(=O)Nc2ccc(Cl)cc2OC(F)F)CCN(C2CC(O)(C(=O)O)C2)CC1` (stereo not drawn) [Compound 121, 3-[4-[[4-chloro-2-(difluoromethoxy)phenyl]carbamoyl]-4-(5-isopropylpyrazol-1-yl)-1-piperidyl]-1-hydroxy-cyclobutanecarboxylic acid], the 50% inhibitory concentration (IC50) came out at 0.0488 µM. For `CC[C@H](CN1CCC(C(=O)Nc2ccc(Cl)cc2OC(F)F)(n2nccc2C(C)C)CC1)C(=O)O` [Compound 122, (2R)-2-[[4-[[4-chloro-2-(difluoromethoxy)phenyl]carbamoyl]-4-(5-isopropylpyrazol-1-yl)-1-piperidyl]methyl]butanoic acid], the half-inhibitory concentration (IC50) turned out to be 0.0239 µM. As to `CC(C)c1ccnn1C1(C(=O)Nc2ccc(Cl)cc2OC(F)F)CCN(C2CC(NC(=O)OC(C)(C)C)(C(=O)O)C2)CC1` (stereo not drawn) [Compound 124, 1-(tert-butoxycarbonylamino)-3-[4-[[4-chloro-2-(difluoromethoxy)phenyl]carbamoyl]-4-(5-isopropylpyrazol-1-yl)-1-piperidyl] cyclobutanecarboxylic acid], the IC50 amounted to 0.0493 µM. In the case of `CC(C)c1ccnn1C1(C(=O)Nc2ccc(Cl)cc2OC(F)F)CCN(CC(CN2CCOCC2)C(=O)O)CC1` (stereo not drawn) [Compound 125, 2-[[4-[[4-chloro-2-(difluoromethoxy)phenyl]carbamoyl]-4-(5-isopropylpyrazol-1-yl)-1-piperidyl]methyl]-3-morpholino-propanoic acid] it was 0.113 µM; in that of `CC[C@@H](CN1CCC(C(=O)Nc2ccc(Cl)cc2OC(F)F)(n2nccc2C(C)C)CC1)C(=O)O` [Compound 126, (2S)-2-[[4-[[4-chloro-2-(difluoromethoxy)phenyl]carbamoyl]-4-(5-isopropylpyrazol-1-yl)-1-piperidyl]methyl] butanoic acid], 0.0221 µM. With `CC(C)c1ccnn1C1(C(=O)Nc2ccc(Cl)cc2OC(F)F)CCN([C@H]2C[C@@]3(C[C@@H]3C(=O)O)C2)CC1` [Compound 127, (1S,3r,5R)-5-[4-[[4-chloro-2-(difluoromethoxy)phenyl]carbamoyl]-4-(5-isopropylpyrazol-1-yl)-1-piperidyl]spiro[2.3] hexane-2-carboxylic acid], the half-inhibitory concentration (IC50) was 0.0319 µM. Take `CC(C)c1ccnn1C1(C(=O)Nc2ccc(Cl)cc2OC(F)F)CCN(C2(CC(=O)O)CCOCC2)CC1` [Compound 128, 2-[4-[4-[[4-chloro-2-(difluoromethoxy)phenyl]carbamoyl]-4-(5-isopropylpyrazol-1-yl)-1-piperidyl]tetrahydropyran-4-yl]acetic acid]: the IC50 worked out at 0.056 µM. In the case of `CC(C)c1ccnn1C1(C(=O)Nc2ccc(Cl)cc2OC(F)F)CCN(CC(Cn2cccn2)C(=O)O)CC1` (stereo not drawn) [Compound 129, 2-[[4-[[4-chloro-2-(difluoromethoxy)phenyl]carbamoyl]-4-(5-isopropylpyrazol-1-yl)-1-piperidyl]methyl]-3-pyrazol-1-yl-propanoic acid] it was 0.0347 µM; in that of `CC(C)c1ccnn1C1(C(=O)Nc2ccc(Cl)cc2OC(F)F)CCN(C[C@@H](C)C(C)(C)C(=O)O)CC1` [Compound 130], 0.0457 µM.

Values taken from patent US20260102383A1, “LPAR1 Inhibitors” (AbbVie Inc., priority 2024, published 2026).
